For one test, the target named is T1, MSI1 RRM1 (Homo sapiens, UniProt O43347).
T1 sequence (O43347 20-110 limits assumed): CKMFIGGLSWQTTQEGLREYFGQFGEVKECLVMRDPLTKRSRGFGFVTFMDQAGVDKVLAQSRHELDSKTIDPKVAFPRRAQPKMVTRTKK
The test is described as follows: HSQC chemical shift mapping. Format: binding. Particulars: MSI1 RRM1 in presence vs absence of compound. The source says:
To test the hypothesis that R12–8–44–3 engages MSI1 RRM1 though specific binding interactions (rather than non-specific aggregation), we used HSQC chemical shift mapping. We collected spectra for this construct in the presence and absence of R12–8–44–3 (Figure 3a), using previously-reported assignments from a very similar construct. […] While not all peaks were assigned in our reference spectrum, we gratifyingly find that of the assigned peaks, those with the largest chemical shift differences (Phe23, Lys93) comprise exactly the expected binding site for R12–8–44–3 (Figure 3b).
Figure 3: Structural characterization of R12–8–44–3 / MSI1. (A) HSQC spectrum of MSI1 RRM1 collected in the presence (red) or absence (black) of R12–8–44–3. Assigned peaks showing the strongest chemical shift difference are labeled (Phe23, Lys93). (B) Mapping the location of these residues to our model of R12–8–44–3/MSI1 confirms that these residues comprise the intended binding site.

The next test deals with K562 cells. Put plainly: Cell growth/survival, K562. Format: cell-based, human. The source says: It is difficult to determine precisely why Ro and R12–8–44–3 have such dramatically different behavior in this assay: one possibility is that Ro, a repurposed compound originally reported for activity unrelated to MSI2, may exert its cytotoxic effect in these cell lines through molecular targets unrelated to MSI2.

The structures appear in SMILES notation.

Turning to `Cc1cc(C(=O)OCc2nc(N)c3c(C)c(C)sc3n2)c(N)cc1F` [R12–8–44–3], the “HSQC chemical shift changes on addition of compound” value on MSI1 RRM1 is “only a small number of peaks shift”. The cell growth/survival entry in the test with K562 cells is on record as “results in alignment with our observations from PC9 cells”.
